From patent US20240287042A1, “NOVEL COMPOUND HAVING INHIBITORY ACTIVITY AGAINST PENDRIN, AND PHARMACEUTICAL USES THEREOF” (UIF (University Industry Foundation), Yonsei University, priority 2021, published 2024)

Molecular target: T1, human wild-type (WT)-pendrin (Homo sapiens, UniProt O43511)
T1 construct: expressed in transfected cells
T1 sequence (O43511 1-780): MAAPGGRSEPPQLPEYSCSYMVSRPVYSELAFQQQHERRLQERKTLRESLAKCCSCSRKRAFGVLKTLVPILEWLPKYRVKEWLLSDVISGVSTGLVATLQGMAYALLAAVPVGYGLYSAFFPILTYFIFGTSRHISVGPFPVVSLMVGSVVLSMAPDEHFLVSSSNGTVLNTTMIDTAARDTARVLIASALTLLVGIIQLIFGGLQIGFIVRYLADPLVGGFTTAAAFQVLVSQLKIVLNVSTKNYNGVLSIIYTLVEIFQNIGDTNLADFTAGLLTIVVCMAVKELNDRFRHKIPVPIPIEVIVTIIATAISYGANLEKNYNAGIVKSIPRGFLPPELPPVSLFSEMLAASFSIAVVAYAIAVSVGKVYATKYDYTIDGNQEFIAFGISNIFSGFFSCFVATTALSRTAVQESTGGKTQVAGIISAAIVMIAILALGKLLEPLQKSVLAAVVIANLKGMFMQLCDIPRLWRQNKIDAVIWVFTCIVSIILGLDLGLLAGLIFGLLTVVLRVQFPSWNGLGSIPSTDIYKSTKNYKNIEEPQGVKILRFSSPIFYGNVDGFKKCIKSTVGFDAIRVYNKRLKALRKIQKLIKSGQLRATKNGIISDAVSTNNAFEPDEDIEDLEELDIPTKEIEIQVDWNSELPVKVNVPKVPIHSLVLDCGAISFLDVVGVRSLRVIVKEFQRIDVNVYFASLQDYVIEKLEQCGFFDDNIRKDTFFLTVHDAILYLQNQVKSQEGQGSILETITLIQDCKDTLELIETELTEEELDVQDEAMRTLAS
Test: Pendrin Cl−/I− exchange inhibitory activity, YFP fluorescence in CHO-K1 cells
Format: cell-based
Conditions: CHO-K1; for inhibition at 1 µM: compound concentration 1 μM; for inhibition at 3 µM: compound concentration 3 μM; for inhibition at 10 µM: compound concentration 10 μM; for inhibition at 30 µM: compound concentration 30 μM; for inhibition at 100 µM: compound concentration 100 μM
Procedure: Chinese hamster ovary (CHO)-K1 cells were cultured in DMEM medium containing 10% fetal bovine serum (FBS), 100 units/ml of penicillin and 100 μg/ml streptomycin. CHO-K1 cells were stably transfected with pcDNA3.1 encoding the halide sensor YFP-H148Q/I152L/F46L and human wild-type (WT)-pendrin.
(§1) CHO-K1 cells expressing human WT pendrin and YFP-F46L/H148Q/I152L were plated in 96-well microplates at a density of 2×10^4 cells per well, and cultured for 48 hours. Each well of the cell cultured 96-well plate was washed 2 times with 200 μL of PBS, and filled with 50 μL of HEPES buffered solution (140 mM NaCl, 5 mM KCl, 1 mM MgCl2, 1 mM CaCl2), 10 mM glucose and 10 mM HEPES (pH 7.4)). Test compounds (1 μL) were added to a final concentration of 1, 3, 10, 30 and 100 μM. After culturing at 37° C. for 10 minutes, the 96-well plate was located on the FLUOstar Omega Microplate Reader (BMG Labtech, Ortenberg, Germany) for a fluorescence assay. Fluorescence was recorded continuously (400 ms per point) for 1 second (baseline), whereby each well was assayed individually for pendrin-mediated I-influx. Then 50 μL of Na-substituted HEPES buffered solution (replacing NaCl with NaI) was added using a liquid injector at 1 second, and YFP fluorescence was recorded for 5 seconds. The initial iodide influx rate was determined from the initial slope of fluorescence by nonlinear regression, after the injection of iodide.
as §1, with “Chinese hamster ovary (CHO)-K1 cells were cultured in DMEM medium containing 10% fetal bovine serum (FBS), 100 units/ml of penicillin and 100 μg/ml streptomycin. CHO-K1 cells were stably transfected with pcDNA3.1 encoding the halide sensor YFP-H148Q/I152L/F46L and human wild-type (WT)-pendrin. 3-2: Assay of Cl^−/I^− exchange activity CHO-K1” for “CHO-K1”, “50” for “1, 3, 10, 30 and 100”, “Then,” for “Then”, “NaI-substituted” for “Na-substituted”

Compound	inhibition at 1 µM [%]	inhibition at 3 µM [%]	inhibition at 10 µM [%]	inhibition at 30 µM [%]	inhibition at 100 µM [%]
Cc1cccc(Cl)c1N1CCN(C(=O)Cc2c(C(=O)O)[nH]c3ccc(Cl)cc23)CC1 [YPI-A4880, 5-Chloro-3-(2-(4-(2-chloro-6-methylphenyl)piperazin-1-yl)-2-oxoethyl)-1H-indole-2-carboxylic acid]	42.8	75.2	97.6	98.1	98.4
O=C(O)c1[nH]c2ccc(Cl)cc2c1CC(=O)N1CCN(c2ccccc2)CC1 [YPI-A4881, 5-Chloro-3-(2-oxo-2-(4-phenylpiperazin-1-yl)ethyl)-1H-indole-2-carboxylic acid]	< 20	< 20	< 20	< 20	40.2
CCOc1ccccc1N1CCN(C(=O)Cc2c(C(=O)O)[nH]c3ccc(Cl)cc23)CC1 [YPI-A4882, 5-Chloro-3-(2-(4-(2-ethoxyphenyl)piperazin-1-yl)-2-oxoethyl)-1H-indole-2-carboxylic acid]	< 20	< 20	< 20	< 20	45.3
CC1CN(C(=O)Cc2c(C(=O)O)[nH]c3ccc(Cl)cc23)CCN1c1ccccc1 (stereo not drawn) [YPI-A4883, 5-Chloro-3-(2-(3-methyl-4-phenylpiperazin-1-yl)-2-oxoethyl)-1H-indole-2-carboxylic acid]	< 20	< 20	< 20	< 20	< 20
CC1(C)CN(c2ccc(Cl)cc2)CCN1C(=O)Cc1c(C(=O)O)[nH]c2ccc(Cl)cc12 [YPI-A4884, 5-Chloro-3-(2-(4-(4-chlorophenyl)-2,2-dimethylpiperazin-1-yl)-2-oxoethyl)-1H-indole-2-carboxylic acid]	< 20	< 20	< 20	< 20	
O=C(O)c1[nH]c2ccc(Cl)cc2c1CC(=O)N1CCN(c2ccc(F)cc2Cl)CC1 [YPI-A4885, 5-Chloro-3-(2-(4-(2-chloro-4-fluorophenyl)piperazin-1-yl)-2-oxoethyl)-1H-indole-2-carboxylic acid]	< 20	< 20	69.1	83.7	84.2
COc1ccc(Cl)c(N2CCN(C(=O)Cc3c(C(=O)O)[nH]c4ccc(Cl)cc34)CC2)c1 [YPI-A4886, 5-Chloro-3-(2-(4-(2-chloro-5-methoxyphenyl)piperazin-1-yl)-2-oxoethyl)-1H-indole-2-carboxylic acid]	< 20	< 20	33.7	66.2	79.9
O=C(O)c1[nH]c2ccc(Cl)cc2c1CC(=O)N1CCN(c2ccc(Cl)cc2Cl)CC1 [YPI-A4887, 5-Chloro-3-(2-(4-(2,4-dichlorophenyl)piperazin-1-yl)-2-oxoethyl)-1H-indole-2-carboxylic acid]	< 20	50.8	89.3	89.5	89.9
C[C@@H]1CN(c2ccccc2)CCN1C(=O)Cc1c(C(=O)O)[nH]c2ccc(Cl)cc12 [YPI-A4914, (R)-5-chloro-3-(2-(2-methyl-4-phenylpiperazin-1-yl)-2-oxoethyl)-1H-indole-2-carboxylic acid]	< 20	< 20	< 20	< 20	68.2
O=C(O)c1[nH]c2ccc(Cl)cc2c1CC(=O)N1CCN(c2ccc(F)cc2F)CC1 [YPI-A4915, 5-Chloro-3-(2-(4-(2,4-difluorophenyl)piperazin-1-yl)-2-oxoethyl)-1H-indole-2-carboxylic acid]	< 20	< 20	< 20	65.2	93.3
O=C(O)c1[nH]c2ccc(Cl)cc2c1CC(=O)N1CCN(c2cc(Cl)c(Cl)c(Cl)c2)CC1 [YPI-A4916, 5-Chloro-3-(2-oxo-2-(4-(3,4,5-trichlorophenyl)piperazin-1-yl)ethyl)-1H-indole-2-carboxylic acid]	< 20	45.7	82.6	90.9	91.4
O=C(O)c1[nH]c2ccc(Cl)cc2c1CC(=O)N1CCN(c2ccccc2F)CC1 [YPI-A4917, 5-Chloro-3-(2-(4-(2-fluorophenyl)piperazin-1-yl)-2-oxoethyl)-1H-indole-2-carboxylic acid]	< 20	< 20	< 20	< 20	78.3
Cc1c(Cl)cccc1N1CCN(C(=O)Cc2c(C(=O)O)[nH]c3ccc(Cl)cc23)CC1 [YPI-A4918, 5-Chloro-3-(2-(4-(3-chloro-2-methylphenyl)piperazin-1-yl)-2-oxoethyl)-1H-indole-2-carboxylic acid]	< 20	34.7	87.5	94.8	95.6
O=C(O)c1ccc(N2CCN(C(=O)Cc3c(C(=O)O)[nH]c4ccc(Cl)cc34)CC2)cc1 [YPI-A4919, 3-(2-(4-(4-Carboxyphenyl)piperazin-1-yl)-2-oxoethyl)-5-chloro-1H-indole-2-carboxylic acid]	< 20	< 20	< 20	< 20	< 20
CC(=O)c1ccc(N2CCN(C(=O)Cc3c(C(=O)O)[nH]c4ccc(Cl)cc34)CC2)cc1 [YPI-A4920, 3-(2-(4-(4-Acetylphenyl)piperazin-1-yl)-2-oxoethyl)-5-chloro-1H-indole-2-carboxylic acid]	< 20	< 20	< 20	< 20	< 20
CCOc1ccc(N2CCN(C(=O)Cc3c(C(=O)O)[nH]c4ccc(Cl)cc34)CC2)cc1 [YPI-A4921, 5-Chloro-3-(2-(4-(4-ethoxyphenyl)piperazin-1-yl)-2-oxoethyl)-1H-indole-2-carboxylic acid]	< 20	< 20	< 20	72.5	73.8
CC(C)(C)c1ccc(N2CCN(C(=O)Cc3c(C(=O)O)[nH]c4ccc(Cl)cc34)CC2)cc1 [YPI-A4943, 3-(2-(4-(4-(Tert-butyl)phenyl)piperazin-1-yl)-2-oxoethyl)-5-chloro-1H-indole-2-carboxylic acid]	< 20	34.1	70.8	81.9	91.5
